Source: ChEMBL document CHEMBL5241106, “Discovery of a Dual Tubulin and Poly(ADP-Ribose) Polymerase-1 Inhibitor by Structure-Based Pharmacophore Modeling, Virtual Screening, Molecular Docking, and Biological Evaluation” (J Med Chem, 2021)
Calls of active or inactive are those of the source. No cut-off for these calls is given here.

Experiments:
[1] = target: Epidermal growth factor receptor (Homo sapiens, UniProt P00533); assay: Inhibition of EGFR (unknown origin)
Tubulin (Homo sapiens) [2] = target: T1, Tubulin (Homo sapiens) (UniProt P68371+Q9H4B7+P0DPH7+P68366+Q13509+Q71U36+P04350+Q3ZCM7+P07437+P68363+Q9BQE3+Q6PEY2+Q13885+Q9BVA1+Q9BUF5); assay: Inhibition of tubulin polymerization in human MDA-MB-231 cells assessed as cell shrinkage, increase in nuclear disruption and microtubule dispersion at 0.5 to 2.5 uM incubated for 48 hrs by immunofluorescence assay; format: cell-based; settings: dose 0.5-2.5 µM
Tubulin (Homo sapiens) [3] = target: T1, Tubulin (Homo sapiens); assay: Inhibition of tubulin polymerization in human MDA-MB-231 cells assessed as blurred or disappeared nucleus and destruction of normal microtubule network at 12.5 uM incubated for 48 hrs by immunofluorescence assay; format: cell-based
[4] = target: Poly [ADP-ribose] polymerase 1 (Homo sapiens, UniProt P09874); assay: Inhibition of PARP-1 in human MDA-MB-231 cells assessed as induction of double strand DNA breaks by measuring increase in gammaH2AX level at 2.5 to 12.5 uM incubated for 48 hrs by western blotting analysis; format: cell-based; settings: dose 2.5-12.5 µM
Sequence of Poly [ADP-ribose] polymerase 1 (P09874 whole entry): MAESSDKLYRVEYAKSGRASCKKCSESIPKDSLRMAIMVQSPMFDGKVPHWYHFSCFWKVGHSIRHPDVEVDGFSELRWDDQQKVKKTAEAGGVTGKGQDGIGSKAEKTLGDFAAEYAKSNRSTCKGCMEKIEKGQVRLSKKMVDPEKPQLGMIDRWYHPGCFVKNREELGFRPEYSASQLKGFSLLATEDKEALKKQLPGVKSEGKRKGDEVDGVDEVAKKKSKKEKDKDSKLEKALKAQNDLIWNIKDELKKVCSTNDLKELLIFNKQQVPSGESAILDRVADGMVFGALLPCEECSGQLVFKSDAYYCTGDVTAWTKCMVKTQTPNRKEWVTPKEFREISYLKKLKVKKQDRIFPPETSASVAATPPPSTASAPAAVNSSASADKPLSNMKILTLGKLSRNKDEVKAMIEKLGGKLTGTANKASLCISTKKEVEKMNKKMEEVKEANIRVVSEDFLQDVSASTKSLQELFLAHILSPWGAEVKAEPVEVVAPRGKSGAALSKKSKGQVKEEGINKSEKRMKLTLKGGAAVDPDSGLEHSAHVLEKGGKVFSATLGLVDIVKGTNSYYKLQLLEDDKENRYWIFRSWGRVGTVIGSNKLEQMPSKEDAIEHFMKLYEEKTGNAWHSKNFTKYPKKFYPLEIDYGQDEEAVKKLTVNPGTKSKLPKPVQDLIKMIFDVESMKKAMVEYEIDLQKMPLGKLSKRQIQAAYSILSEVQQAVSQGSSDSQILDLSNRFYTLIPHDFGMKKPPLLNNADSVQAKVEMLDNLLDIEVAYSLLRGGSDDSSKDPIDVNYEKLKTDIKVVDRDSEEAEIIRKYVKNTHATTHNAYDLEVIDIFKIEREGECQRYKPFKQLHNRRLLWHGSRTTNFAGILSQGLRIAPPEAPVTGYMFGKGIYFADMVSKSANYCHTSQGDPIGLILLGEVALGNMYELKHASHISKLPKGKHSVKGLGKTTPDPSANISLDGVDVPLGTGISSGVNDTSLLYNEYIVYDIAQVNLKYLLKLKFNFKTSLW

MDA-MB-231 [5] = assay: Cytotoxicity against human MDA-MB-231 cells assessed as inhibition of cell growth incubated for 72 hrs by MTT assay; format: functional, cell-based
[6] = Cytotoxicity against human MCF-10A cells assessed as inhibition of cell growth incubated for 72 hrs by MTT assay; format: toxicity, cell-based
[7] = Selectivity index, ratio of IC50 for cytotoxicity against human MCF-10A cells to IC50 for cytotoxicity against human MDA-MB-231 cells; format: toxicity, cell-based; settings: MCF-10A cells versus MDA-MB-231 cells, read-out: Ratio IC50
MDA-MB-231 [8] = assay: Inhibition of colony formation in human MDA-MB-231 cells at 2.5 uM measured after 10 days by crystal violet staining based analysis; format: functional; settings: MDA-MB-231, 240 h, time 10 day
MDA-MB-231 [9] = assay: Induction of cell cycle arrest in human MDA-MB-231 cells assessed as proportion of cells at G2/M phase at 0.5 uM incubated for 48 hrs by propidium iodide staining based flow cytometry (reference value: 9.81%); format: functional
MDA-MB-231 [10] = assay: Induction of cell cycle arrest in human MDA-MB-231 cells assessed as decrease in cyclin B1 expression at 0.5 to 12.5 uM incubated for 48 hrs by western blot analysis; format: functional, cell-based; settings: dose 0.5-12.5 µM
MDA-MB-231 [11] = assay: Induction of apoptosis in human MDA-MB-231 cells assessed as necrotic cells at 2.5 uM incubated for 48 hrs by Annexin V-FITC/PI staining based flow cytometry (reference value: 1.86%); format: functional
MDA-MB-231 [12] = assay: Induction of apoptosis in human MDA-MB-231 cells assessed as early apoptotic cells at 12.5 uM incubated for 48 hrs by Annexin V-FITC/PI staining based flow cytometry (reference value: 1.71%); format: functional
MDA-MB-231 [13] = assay: Induction of apoptosis in human MDA-MB-231 cells assessed as late apoptotic cells at 12.5 uM incubated for 48 hrs by Annexin V-FITC/PI staining based flow cytometry (reference value: 5.06%); format: functional
MDA-MB-231 [14] = assay: Induction of apoptosis in human MDA-MB-231 cells assessed as increase in cleaved caspase-3 level at 0.5 to 12.5 uM incubated for 48 hrs by western blot analysis; format: functional, cell-based; settings: dose 0.5-12.5 µM
MCF-10A = assay: Induction of apoptosis in human MCF-10A cells at 0.5 to 12.5 uM incubated for 48 hrs by Annexin V-FITC/PI staining based flow cytometry; format: toxicity, cell-based; settings: dose 0.5-12.5 µM
MDA-MB-231 [15] = assay: Anticancer activity against human MDA-MB-231 cells xenografted in BALB/c mouse assessed as reduction in tumor weight at 5 mg/kg, ip administered for every 4 days for 7 times; format: functional, organism-based; settings: time 28.0 day
[16] = Toxicity in BALB/c mouse xenografted with human MDA-MB-231 cells assessed as increase in body weight at 1 to 5 mg/kg, ip administered every 4 days for 7 times; format: organism-based; settings: in vivo, 672 h, dose 1-5 mg/kg, time 28 day
[17] = Toxicity in BALB/c mouse xenografted with human MDA-MB-231 cells assessed as change in liver morphological changes at 1 to 5 mg/kg, ip administered every 4 days for 7 times measured at 48 hrs post-last administration by H and E staining based fluorescence microscopic analysis; format: organism-based; settings: in vivo, 720 h, dose 1-5 mg/kg, time 30 day
[18] = Toxicity in BALB/c mouse xenografted with human MDA-MB-231 cells assessed as change in lung morphological changes at 1 to 5 mg/kg, ip administered every 4 days for 7 times measured at 48 hrs post-last administration by H and E staining based fluorescence microscopic analysis; format: organism-based; settings: in vivo, 720 h, dose 1-5 mg/kg, time 30 day
[19] = Toxicity in BALB/c mouse xenografted with human MDA-MB-231 cells assessed as change in kidney morphological changes at 1 to 5 mg/kg, ip administered every 4 days for 7 times measured at 48 hrs post-last administration by H and E staining based fluorescence microscopic analysis; format: organism-based; settings: in vivo, 720 h, dose 1-5 mg/kg, time 30 day
[20] = Toxicity in BALB/c mouse xenografted with human MDA-MB-231 cells assessed as effect on hemoglobin level at 1 to 5 mg/kg, ip administered every 4 days for 7 times measured at 48 hrs post-last administration; format: organism-based; settings: in vivo, 720 h, dose 1-5 mg/kg, time 30 day
[21] = Hepatotoxicity in BALB/c mouse xenografted with human MDA-MB-231 cells assessed as effect on blood ALT level at 1 to 5 mg/kg, ip administered every 4 days for 7 times measured at 48 hrs post-last administration; format: toxicity, organism-based; settings: in vivo, 720 h, dose 1-5 mg/kg, time 30 day
[22] = Hepatotoxicity in BALB/c mouse xenografted with human MDA-MB-231 cells assessed as effect on blood AST level at 1 to 5 mg/kg, ip administered every 4 days for 7 times measured at 48 hrs post-last administration; format: toxicity, organism-based; settings: in vivo, 720 h, dose 1-5 mg/kg, time 30 day
[23] = Renal toxicity in BALB/c mouse xenografted with human MDA-MB-231 cells assessed as effect on blood urea nitrogen level at 1 to 5 mg/kg, ip administered every 4 days for 7 times measured at 48 hrs post-last administration; format: organism-based; settings: in vivo, 720 h, dose 1-5 mg/kg, time 30 day
[24] = Renal toxicity in BALB/c mouse xenografted with human MDA-MB-231 cells assessed as effect on blood creatinine level at 1 to 5 mg/kg, ip administered every 4 days for 7 times measured at 48 hrs post-last administration; format: organism-based; settings: in vivo, 720 h, dose 1-5 mg/kg, time 30 day

Sequence of Epidermal growth factor receptor (P00533 whole entry): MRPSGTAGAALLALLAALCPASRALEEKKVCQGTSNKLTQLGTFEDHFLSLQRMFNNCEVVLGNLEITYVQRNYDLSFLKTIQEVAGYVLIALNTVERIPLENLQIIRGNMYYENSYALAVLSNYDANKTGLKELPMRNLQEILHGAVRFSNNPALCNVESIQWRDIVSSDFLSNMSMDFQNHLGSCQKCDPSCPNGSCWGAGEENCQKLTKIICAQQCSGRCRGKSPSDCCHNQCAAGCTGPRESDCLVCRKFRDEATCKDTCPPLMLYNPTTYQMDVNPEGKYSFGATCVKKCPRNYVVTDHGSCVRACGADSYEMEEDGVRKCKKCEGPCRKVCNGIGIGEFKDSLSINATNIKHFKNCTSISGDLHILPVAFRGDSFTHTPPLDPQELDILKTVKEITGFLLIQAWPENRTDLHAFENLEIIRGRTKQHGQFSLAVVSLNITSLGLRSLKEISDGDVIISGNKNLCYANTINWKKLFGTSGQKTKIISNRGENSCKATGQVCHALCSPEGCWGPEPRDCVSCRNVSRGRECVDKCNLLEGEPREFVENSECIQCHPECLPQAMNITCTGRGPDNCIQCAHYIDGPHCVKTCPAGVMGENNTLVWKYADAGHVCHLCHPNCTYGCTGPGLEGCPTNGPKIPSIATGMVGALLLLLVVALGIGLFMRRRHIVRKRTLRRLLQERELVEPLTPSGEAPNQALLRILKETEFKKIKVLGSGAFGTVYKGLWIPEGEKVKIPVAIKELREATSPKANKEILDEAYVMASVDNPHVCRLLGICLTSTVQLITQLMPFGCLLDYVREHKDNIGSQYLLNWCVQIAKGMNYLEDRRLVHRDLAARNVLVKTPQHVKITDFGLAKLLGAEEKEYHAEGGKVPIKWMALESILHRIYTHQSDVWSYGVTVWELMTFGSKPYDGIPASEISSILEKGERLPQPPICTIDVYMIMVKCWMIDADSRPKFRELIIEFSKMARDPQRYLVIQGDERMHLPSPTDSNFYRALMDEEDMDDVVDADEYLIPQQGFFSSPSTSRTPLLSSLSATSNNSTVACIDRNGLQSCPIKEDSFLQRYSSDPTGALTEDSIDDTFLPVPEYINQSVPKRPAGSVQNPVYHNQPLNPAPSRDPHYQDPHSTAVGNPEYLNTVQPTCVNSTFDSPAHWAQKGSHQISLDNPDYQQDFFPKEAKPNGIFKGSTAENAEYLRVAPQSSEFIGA

For O=c1[nH]c(/C=C/c2cccc(F)c2)nc2ccccc12, the IC50 [1] was over 10 µM, the inhibition (Tubulin (Homo sapiens) [2]) was “Active” and the inhibition (Tubulin (Homo sapiens) [3]) was “Active”. For the same molecule, the inhibition [4] was “Active”, the Activity (MDA-MB-231 [5]) was “Active” and the IC50 at 72 h [6] was over 10 µM. It also gave a selectivity ratio [7] of over 14, an inhibition at 2.5 µM (MDA-MB-231 [8]) of 100% and an Activity (MDA-MB-231 [9]) of 23.57%. The Activity (MDA-MB-231 [10]) was “Active”, the Activity (MDA-MB-231 [11]) was 1% and the Activity (MDA-MB-231 [12]) was 3.32%. The Activity (MDA-MB-231 [13]) was 8.97%, the Activity (MDA-MB-231 [14]) was “Active” and the Activity (MCF-10A) was “Non-Toxic”. The Activity (MDA-MB-231 [15]) was “Active”, the Activity [16] was “Toxic” and the Activity [17] was “Non-Toxic”. For the same molecule, the Activity [18] was “Non-Toxic”, the Activity [19] was “Non-Toxic” and the Activity [20] was “Non-Toxic”. The Activity [21] was “Non-Toxic”, the Activity [22] was “Non-Toxic” and the Activity [23] was “Non-Toxic”. For the same molecule, the Activity [24] was “Non-Toxic”.
